# Experimental data taken from patent publication US12714707B2, “Combination cancer therapy using CHK inhibitor” (SHANGHAI HUAYU BIOTECHNOLOGY CO., LTD., priority 2020, dated 2026).
# Key:
# Type in all cases: cell-based
# [1] = test system: MCF7F cells (fulvestrant-resistant); assay: MTT cell viability / cell death rate, MCF7F cells (Example 1); conditions: 48 hours; for Cell Death Rate/% mean: mean of triplicate; for Cell Death Rate/% 1: replicate 1; for Cell Death Rate/% 2: replicate 2; for Cell Death Rate/% 3: replicate 3
# Method: MCF7F cells (fulvestrant-resistant) were maintained at 37° C. in 5% CO2 in RPMI 1640 medium (10-040-CV, Coming cellgro) supplemented with 10% FBS (10270-106, GIBCO), 1% penicillin and 1% streptomycin, and used before the 10th subculture, wherein these cells were in house prepared by culturing MCF7 cells (TCHu 74, National Collection of Authenticated Cell Cultures) in medium containing 1 μM fulvestrant for approximately 18 months (Hong Liu et al., Cooperative effect of gefitinib and fumitremorgin c on cell growth and chemosensitivity in estrogen receptor alpha negative fulvestrant-resistant MCF-7 cells. Int J Oncol. 2006. 29(5):1237-1246).
# (§1) Briefly, the MCF7F cells were cultured at 37° C. in 5% CO2 in RPMI 1640 medium supplemented with i) 10% FBS, ii) 1% penicillin and 1% streptomycin, and iii) AZD2281 (final concentration at 800 nM), ABT888 (final concentration at 800 nM), Compound 605B (final concentration at 25 nM), 605B+AZD2281 (final concentration at 25 nM and 800 nM), 605B+ABT888 (final concentration at 25 nM and 800 nM), or PBS (vehicle), for 48 hours. Then, cell viability was determined by a MTT assay. The test was done in triplicate.
# (§2) Cell death rate was calculated by the following formula. Cell death rate=[1−(ODtest[…])]×100%
# (§3) Cell death rates were analyzed using student's t-test, and group differences were deemed statistically significant when the p-value was lower than 0.05. Zheng-Jun Jin's Q value was calculated using the formula Q=EA+B/(EA+EB−EA×EB) to assess the combined effect of Compound 605B and the PARP inhibitor, wherein EA+B, EA, and EB referred to the cell death rates caused by the combined treatment, 605B treatment and PARP inhibitor treatment, respectively. A Q value higher than 1.15 meant a synergistic […] effect.
# [2] = test system: BT474; assay: MTT cell death rate, BT474 cells, 605B with AZD2281 (Example 2); conditions: 48 hours; for Cell Death Rate/% 1: replicate 1; for Cell Death Rate/% 2: replicate 2; for Cell Death Rate/% 3: replicate 3
# Method: as §2, §3
# (§4) The combined use of Compound 605 and AZD2281 was further tested in other breast cancer cell lines, including BT474 (TCHu 143, National collection of Authenticated Cell Cultures), MCF7 (TCHu 74, National collection of Authenticated Cell Cultures), and MMTV-HER2 (a gift from Dr. Liguang-L, Shanghai Institute of Materia Medica, Chinese Academy of Sciences).
# as §1, with “these” for “the MCF7F”, “and” for “and 1%”, “AZD2281” for “AZD2281 (final concentration at 800 nM), ABT888”, “nM),” for “nM), 605B+ABT888 (final concentration at 25 nM and 800 nM),”, “PBS,” for “PBS (vehicle),”
# [3] = test system: MMTV-HER2; assay: MTT cell death rate, MMTV-HER2 cells, 605B with AZD2281 (Example 2); conditions: 48 hours; for Cell Death Rate/% 1: replicate 1; for Cell Death Rate/% 2: replicate 2; for Cell Death Rate/% 3: replicate 3
# Method: as §2, §3, §4
# as §1, with “these” for “the MCF7F”, “and” for “and 1%”, “AZD2281” for “AZD2281 (final concentration at 800 nM), ABT888”, “nM),” for “nM), 605B+ABT888 (final concentration at 25 nM and 800 nM),”, “PBS,” for “PBS (vehicle),”
# [4] = test system: MCF7; assay: MTT cell death rate, MCF7 cells, 605B with AZD2281 (Example 2); conditions: 48 hours; for Cell Death Rate/% 1: replicate 1; for Cell Death Rate/% 2: replicate 2; for Cell Death Rate/% 3: replicate 3
# Method: as §2, §3, §4
# as §1, with “these” for “the MCF7F”, “and” for “and 1%”, “AZD2281” for “AZD2281 (final concentration at 800 nM), ABT888”, “nM),” for “nM), 605B+ABT888 (final concentration at 25 nM and 800 nM),”, “PBS,” for “PBS (vehicle),”
# [5] = test system: BT474; assay: MTT cell death rate, BT474 cells, 605B with Rucaparib (Example 3); conditions: 48 hours; for Cell Death Rate/% 1: replicate 1; for Cell Death Rate/% 2: replicate 2; for Cell Death Rate/% 3: replicate 3
# Method: as §2, §3
# (§5) Compound 605B was tested with another PARP inhibitor, AG014699 (Rucaparib), for the inhibitory effects on breast tumor cell lines, including BT474, MCF7, and MMTV-HER2.
# (§6) Briefly, these cells were cultured at 37° C. in 5% CO2 in RPMI 1640 medium supplemented with i) 10% FBS, ii) 1% penicillin and 1% streptomycin, and iii) AZD2281 (final concentration at 800 nM), Compound 605B (final concentration at 25 nM), 605B+AZD2281 (final concentration at 25 nM and 800 nM), or PBS, for 48 hours. Then, cell viability was determined by the MTT assay. The test was done in triplicate.
# [6] = test system: MCF7; assay: MTT cell death rate, MCF7 cells, 605B with Rucaparib (Example 3); conditions: 48 hours; for Cell Death Rate/% 1: replicate 1; for Cell Death Rate/% 2: replicate 2; for Cell Death Rate/% 3: replicate 3
# Method: as §2, §3, §5, §6
# [7] = test system: MMTV-HER2; assay: MTT cell death rate, MMTV-HER2 cells, 605B with Rucaparib (Example 3); conditions: 48 hours; for Cell Death Rate/% 1: replicate 1; for Cell Death Rate/% 2: replicate 2; for Cell Death Rate/% 3: replicate 3
# Method: as §2, §3, §5, §6
structure (smiles),measurement,setting,value
"C[C@]1(c2nc3c(C(N)=O)cccc3[nH]2)CCCN1 [ABT888, Veliparib]",Cell Death Rate/% mean,[1]; final concentration 800 nM,4.63%
same,Cell Death Rate/% 1,[1]; final concentration 800 nM,4.69%
same,Cell Death Rate/% 2,[1]; final concentration 800 nM,4.28%
same,Cell Death Rate/% 3,[1]; final concentration 800 nM,4.93%
"O=C(c1cc(Cc2n[nH]c(=O)c3ccccc23)ccc1F)N1CCN(C(=O)C2CC2)CC1 [AZD2281, Olaparib]",Cell Death Rate/% mean,[2]; final concentration 800 nM,5.28%
same,Cell Death Rate/% 1,[2]; final concentration 800 nM,5.47%
same,Cell Death Rate/% 2,[2]; final concentration 800 nM,5.1%
same,Cell Death Rate/% 3,[2]; final concentration 800 nM,5.27%
same,Cell Death Rate/% mean,[3]; final concentration 800 nM,8.28%
same,Cell Death Rate/% 1,[3]; final concentration 800 nM,8.34%
same,Cell Death Rate/% 2,[3]; final concentration 800 nM,8.46%
same,Cell Death Rate/% 3,[3]; final concentration 800 nM,8.05%
same,Cell Death Rate/% mean,[1]; final concentration 800 nM,5.55%
same,Cell Death Rate/% 1,[1]; final concentration 800 nM,5.86%
same,Cell Death Rate/% 2,[1]; final concentration 800 nM,5.42%
same,Cell Death Rate/% 3,[1]; final concentration 800 nM,5.37%
same,Cell Death Rate/% mean,[4]; final concentration 800 nM,5.34%
same,Cell Death Rate/% 1,[4]; final concentration 800 nM,5.34%
same,Cell Death Rate/% 2,[4]; final concentration 800 nM,5.39%
same,Cell Death Rate/% 3,[4]; final concentration 800 nM,5.66%
"NC(=O)c1nnc(N[C@H]2CCCNC2)c2cc(-c3cccc(F)c3)sc12 [Compound 605B, 2-(3-fluorophenyl)-4-(3-piperidineamino)-thieno[2,3-d]pyridazine-7-carboxylic acid amide]",Cell Death Rate/% mean,[2]; final concentration 25 nM,7.67%
same,Cell Death Rate/% 1,[2]; final concentration 25 nM,7.72%
same,Cell Death Rate/% 2,[2]; final concentration 25 nM,7.45%
same,Cell Death Rate/% 3,[2]; final concentration 25 nM,7.83%
same,Cell Death Rate/% mean,[3]; final concentration 25 nM,8.50%
same,Cell Death Rate/% 1,[3]; final concentration 25 nM,8.69%
same,Cell Death Rate/% 2,[3]; final concentration 25 nM,8.33%
same,Cell Death Rate/% 3,[3]; final concentration 25 nM,8.47%
same,Cell Death Rate/% mean,[5]; final concentration 25 nM,8.47%
same,Cell Death Rate/% 1,[5]; final concentration 25 nM,8.49%
same,Cell Death Rate/% 2,[5]; final concentration 25 nM,8.24%
same,Cell Death Rate/% 3,[5]; final concentration 25 nM,8.67%
same,Cell Death Rate/% mean,[6]; final concentration 25 nM,8.41%
same,Cell Death Rate/% 1,[6]; final concentration 25 nM,8.5%
same,Cell Death Rate/% 2,[6]; final concentration 25 nM,8.39%
same,Cell Death Rate/% 3,[6]; final concentration 25 nM,8.33%
same,Cell Death Rate/% mean,[7]; final concentration 25 nM,9.11%
same,Cell Death Rate/% 1,[7]; final concentration 25 nM,9.13%
same,Cell Death Rate/% 2,[7]; final concentration 25 nM,8.90%
same,Cell Death Rate/% 3,[7]; final concentration 25 nM,9.29%
same,inhibitory effects on cells / cell death rates (in words),[1],little inhibitory effects
same,Cell Death Rate/% mean,[1]; final concentration 25 nM,4.97%
same,Cell Death Rate/% 1,[1]; final concentration 25 nM,5.03%
same,Cell Death Rate/% 2,[1]; final concentration 25 nM,5.22%
same,Cell Death Rate/% 3,[1]; final concentration 25 nM,4.67%
same,Cell Death Rate/% mean,[4]; final concentration 25 nM,6.51%
same,Cell Death Rate/% 1,[4]; final concentration 25 nM,6.51%
same,Cell Death Rate/% 2,[4]; final concentration 25 nM,6.38%
same,Cell Death Rate/% 3,[4]; final concentration 25 nM,6.72%
CNCc1ccc(-c2[nH]c3cc(F)cc4c3c2CCNC4=O)cc1 [Rucaparib],Cell Death Rate/% mean,[5]; final concentration 800 nM,7.60%
same,Cell Death Rate/% 1,[5]; final concentration 800 nM,7.63%
same,Cell Death Rate/% 2,[5]; final concentration 800 nM,7.77%
same,Cell Death Rate/% 3,[5]; final concentration 800 nM,7.39%
same,Cell Death Rate/% mean,[6]; final concentration 800 nM,6.66%
same,Cell Death Rate/% 1,[6]; final concentration 800 nM,6.88%
same,Cell Death Rate/% 2,[6]; final concentration 800 nM,6.46%
same,Cell Death Rate/% 3,[6]; final concentration 800 nM,6.65%
same,Cell Death Rate/% mean,[7]; final concentration 800 nM,7.50%
same,Cell Death Rate/% 1,[7]; final concentration 800 nM,7.54%
same,Cell Death Rate/% 2,[7]; final concentration 800 nM,7.68%
same,Cell Death Rate/% 3,[7]; final concentration 800 nM,7.29%
